Measurements: ChEMBL document CHEMBL1201862, “PubChem BioAssay data set” (2004)
Calls of active or inactive are those of the source.

What was measured:
[1] = molecular target: Hexokinase-1 (Homo sapiens, UniProt P19367); test: hexokinase 1 activity inhibitors, potency – biochemical, set 2, resazurin fluorescence coupled readout, selectivity assay for HKDC1 inhibitor project, SAR follow-up (AID 588356); type: functional
[2] = molecular target: Hexokinase HKDC1 (Homo sapiens, UniProt Q2TB90); test: analog inhibition of human HKDC1 activity – biochemical, set 2, SAR follow-up (AID 588355); type: functional
Chain of Hexokinase HKDC1 (Q2TB90 whole entry): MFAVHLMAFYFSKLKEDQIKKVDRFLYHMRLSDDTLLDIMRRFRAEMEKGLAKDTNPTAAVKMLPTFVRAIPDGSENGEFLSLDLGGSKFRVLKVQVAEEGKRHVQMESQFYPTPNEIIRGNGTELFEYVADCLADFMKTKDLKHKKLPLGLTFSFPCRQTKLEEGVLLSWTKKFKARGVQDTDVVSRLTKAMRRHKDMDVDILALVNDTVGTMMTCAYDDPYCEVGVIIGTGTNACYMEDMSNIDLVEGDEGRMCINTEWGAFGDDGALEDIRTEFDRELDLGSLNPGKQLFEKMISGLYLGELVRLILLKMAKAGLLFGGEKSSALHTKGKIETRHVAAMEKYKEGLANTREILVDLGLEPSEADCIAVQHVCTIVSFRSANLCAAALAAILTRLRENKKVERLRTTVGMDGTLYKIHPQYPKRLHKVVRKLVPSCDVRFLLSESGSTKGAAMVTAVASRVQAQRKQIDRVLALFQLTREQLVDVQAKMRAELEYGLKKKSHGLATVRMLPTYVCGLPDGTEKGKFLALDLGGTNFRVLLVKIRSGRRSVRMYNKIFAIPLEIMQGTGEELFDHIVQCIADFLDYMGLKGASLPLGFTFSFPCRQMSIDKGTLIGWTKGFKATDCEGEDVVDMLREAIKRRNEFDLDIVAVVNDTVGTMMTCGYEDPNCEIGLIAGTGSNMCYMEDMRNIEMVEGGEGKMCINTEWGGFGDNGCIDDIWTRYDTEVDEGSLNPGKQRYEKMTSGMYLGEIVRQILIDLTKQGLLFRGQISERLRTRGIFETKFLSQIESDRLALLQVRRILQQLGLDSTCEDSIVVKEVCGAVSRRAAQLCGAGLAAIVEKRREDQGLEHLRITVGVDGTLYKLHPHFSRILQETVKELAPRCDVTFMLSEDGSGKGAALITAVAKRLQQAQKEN

[3] = molecular target: RNA-editing ligase 1, mitochondrial (Trypanosoma brucei brucei, UniProt P86926); test: inhibition of trypanosome RNA editing ligase – biochemical, fluorescence, Trypanosoma brucei, dose response (AID 1117295); type: functional
Chain of RNA-editing ligase 1, mitochondrial (P86926 whole entry): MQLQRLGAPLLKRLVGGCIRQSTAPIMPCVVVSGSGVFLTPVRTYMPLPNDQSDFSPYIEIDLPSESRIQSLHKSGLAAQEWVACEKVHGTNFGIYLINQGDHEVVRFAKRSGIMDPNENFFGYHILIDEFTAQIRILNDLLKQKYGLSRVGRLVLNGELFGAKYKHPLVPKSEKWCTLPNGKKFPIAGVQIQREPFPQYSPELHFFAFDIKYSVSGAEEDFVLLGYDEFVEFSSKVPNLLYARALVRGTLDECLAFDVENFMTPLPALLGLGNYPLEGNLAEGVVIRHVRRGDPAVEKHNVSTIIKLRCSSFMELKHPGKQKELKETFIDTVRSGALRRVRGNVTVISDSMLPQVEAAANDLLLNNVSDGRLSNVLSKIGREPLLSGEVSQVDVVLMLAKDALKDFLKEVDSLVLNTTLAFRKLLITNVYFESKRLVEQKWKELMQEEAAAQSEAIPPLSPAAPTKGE

[4] = molecular target: NAD-dependent protein deacylase sirtuin-5, mitochondrial (Homo sapiens, UniProt Q9NXA8); test: sirtuin-5 deacylation blockers, concentration series – biochemical, fluorescence imaging, cherry-pick, set 5, dose response (AID 720591);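 note: desuccinylation of succinyl peptide AMC substrate read as fluorescence after trypsin release; potency of inhibitors that lower fluorescence and may act on trypsin instead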
[5] = restored growth of temperature-sensitive Burl-1 yeast – whole organism, S. cerevisiae, Burl-1 ts mutant, luminescence, counter-screen for SUMOylation pathway inhibitor project, dose response (AID 463199); type: functional
[6] = molecular target: T1, Carboxy-terminal domain RNA polymerase II polypeptide A small phosphatase 1 (Homo sapiens, UniProt Q9GZU7); test: CTDSP1 inhibitors, concentration-response, biochemical, absorbance readout, ultra-high-throughput screen actives (AID 540297); type: functional
T1 sequence (Q9GZU7 whole entry): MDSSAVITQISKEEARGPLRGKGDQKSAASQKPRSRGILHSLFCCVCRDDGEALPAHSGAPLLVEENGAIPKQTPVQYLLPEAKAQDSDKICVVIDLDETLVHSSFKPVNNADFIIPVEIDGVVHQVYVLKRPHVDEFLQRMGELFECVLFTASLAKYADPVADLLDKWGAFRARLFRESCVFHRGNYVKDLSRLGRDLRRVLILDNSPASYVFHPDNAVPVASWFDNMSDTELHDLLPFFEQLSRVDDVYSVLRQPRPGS

[7] = molecular target: T2, Fructose-bisphosphate aldolase (Mycobacterium tuberculosis, UniProt P9WQA3); test: Fluorescence-based biochemical high throughput dose response assay for inhibitors of the fructose-bisphosphate aldolase (FBA) of M. tuberculosis.; type: functional
T2 sequence (P9WQA3 whole entry): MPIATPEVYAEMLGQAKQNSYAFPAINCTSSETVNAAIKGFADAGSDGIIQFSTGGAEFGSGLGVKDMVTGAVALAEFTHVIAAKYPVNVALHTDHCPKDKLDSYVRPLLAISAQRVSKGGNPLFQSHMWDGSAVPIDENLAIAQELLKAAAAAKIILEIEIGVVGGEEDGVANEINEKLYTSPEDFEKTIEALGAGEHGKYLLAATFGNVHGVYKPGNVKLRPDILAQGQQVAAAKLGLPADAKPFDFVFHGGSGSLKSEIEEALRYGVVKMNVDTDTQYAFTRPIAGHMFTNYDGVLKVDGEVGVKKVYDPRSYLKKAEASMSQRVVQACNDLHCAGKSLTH

[8] = toxicity toward cultured mammalian cells – cell-based, plate reader, cherry-pick samples, cytotoxicity control, dose response (AID 504397); type: functional
[9] = molecular target: CAAX prenyl protease 2 (Saccharomyces cerevisiae S288c, UniProt Q03530); test: inhibition of Rce1p peptide cleavage – biochemical, plate reader, dry powder retest, dose response (AID 588851)
Chain of CAAX prenyl protease 2 (Q03530 whole entry): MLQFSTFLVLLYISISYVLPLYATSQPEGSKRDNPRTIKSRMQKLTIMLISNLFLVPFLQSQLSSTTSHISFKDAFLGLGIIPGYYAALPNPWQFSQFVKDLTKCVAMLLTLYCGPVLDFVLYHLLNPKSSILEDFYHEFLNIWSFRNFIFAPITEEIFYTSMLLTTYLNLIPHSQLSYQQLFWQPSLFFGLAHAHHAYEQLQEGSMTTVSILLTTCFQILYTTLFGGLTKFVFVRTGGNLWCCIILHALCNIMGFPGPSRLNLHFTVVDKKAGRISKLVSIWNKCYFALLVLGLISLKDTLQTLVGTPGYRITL

[10] = fluconazole-exposed Candida albicans growth modulators – fluorescence, retest, confirmation (AID 2467); type: functional, cell-based
[11] = NIH-3T3 fibroblast cytotoxicity, dose response, cytotoxicity control, cell-based, fluorescence, Alamar Blue, secondary assay (AID 2327); type: functional;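 note: NIH-3T3 mouse fibroblasts cultured with fluconazole at 8 µg/mL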
[12] = molecular target: Serine/threonine-protein phosphatase (Candida dubliniensis (strain CD36 / CBS 7987 / NCPF 3949 / NRRLY-17841) (Yeast), UniProt B9W6M3); test: blockers of CaCl2-induced CDRE-lacZ signaling – S. cerevisiae, luminescence, secondary, dose response (AID 2388); type: functional, cell-based;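 note: yeast reporter cells carrying a calcineurin-responsive lacZ construct stimulated with calcium chloride; luminescent beta-galactosidase reporter signal in whole cells rather than isolated phosphatase activity; potency for inhibition where a drop in reporter signal means calcineurin blockade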
Chain of Serine/threonine-protein phosphatase (B9W6M3 whole entry): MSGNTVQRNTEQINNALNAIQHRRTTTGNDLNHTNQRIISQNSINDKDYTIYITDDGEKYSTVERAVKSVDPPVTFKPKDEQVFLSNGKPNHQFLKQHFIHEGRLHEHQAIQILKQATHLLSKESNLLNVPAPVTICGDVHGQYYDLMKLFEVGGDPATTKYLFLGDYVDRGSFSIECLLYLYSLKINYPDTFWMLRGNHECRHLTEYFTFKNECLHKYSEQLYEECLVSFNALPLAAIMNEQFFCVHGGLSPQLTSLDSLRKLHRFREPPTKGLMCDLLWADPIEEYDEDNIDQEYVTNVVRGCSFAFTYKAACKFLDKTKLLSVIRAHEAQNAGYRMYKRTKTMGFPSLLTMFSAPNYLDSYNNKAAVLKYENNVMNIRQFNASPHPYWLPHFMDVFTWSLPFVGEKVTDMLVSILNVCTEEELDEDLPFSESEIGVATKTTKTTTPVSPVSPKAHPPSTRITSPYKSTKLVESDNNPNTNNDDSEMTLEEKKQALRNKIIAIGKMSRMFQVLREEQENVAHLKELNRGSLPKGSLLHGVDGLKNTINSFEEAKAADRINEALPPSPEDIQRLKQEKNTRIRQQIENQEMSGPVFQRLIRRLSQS

[13] = molecular target: ATP-dependent molecular chaperone HSP82 (Candida albicans (strain WO-1) (Yeast), UniProt C4YTQ8); test: steroid-induced GRE reporter decrease in yeast – S. cerevisiae, luminescence, Hsp90 inhibitor project, dose response (AID 2400); type: functional, cell-based;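 note: beta-galactosidase luminescence from glucocorticoid response element reporter as proxy for Hsp90 function; inhibitor potency where signal loss means Hsp90 inhibition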
Chain of ATP-dependent molecular chaperone HSP82 (C4YTQ8 whole entry): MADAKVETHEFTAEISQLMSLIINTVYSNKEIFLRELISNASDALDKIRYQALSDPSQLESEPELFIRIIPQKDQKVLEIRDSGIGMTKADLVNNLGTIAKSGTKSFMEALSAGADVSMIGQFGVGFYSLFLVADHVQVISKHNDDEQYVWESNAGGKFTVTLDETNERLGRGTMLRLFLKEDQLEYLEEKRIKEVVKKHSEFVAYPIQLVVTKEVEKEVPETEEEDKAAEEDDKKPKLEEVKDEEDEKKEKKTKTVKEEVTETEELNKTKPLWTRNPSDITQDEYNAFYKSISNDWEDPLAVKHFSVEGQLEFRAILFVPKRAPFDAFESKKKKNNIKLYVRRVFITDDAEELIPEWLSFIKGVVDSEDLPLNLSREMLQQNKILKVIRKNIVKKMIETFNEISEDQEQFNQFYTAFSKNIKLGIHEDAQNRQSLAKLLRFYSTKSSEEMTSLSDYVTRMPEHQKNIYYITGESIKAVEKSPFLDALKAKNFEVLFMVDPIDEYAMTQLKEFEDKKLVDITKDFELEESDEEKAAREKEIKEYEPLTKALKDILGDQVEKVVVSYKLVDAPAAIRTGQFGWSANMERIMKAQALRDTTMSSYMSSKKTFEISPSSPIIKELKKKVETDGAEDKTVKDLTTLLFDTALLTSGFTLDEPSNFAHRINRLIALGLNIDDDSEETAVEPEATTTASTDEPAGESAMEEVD

[14] = molecular target: Dual specificity protein phosphatase 6 (Rattus norvegicus, UniProt Q64346); type: functional;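 note: confirmatory in vitro dose-response testing of MKP-3 inhibition; recombinant His-tagged MKP-3 made in E. coli BL21 with OMFP substrate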
Chain of Dual specificity protein phosphatase 6 (Q64346 whole entry): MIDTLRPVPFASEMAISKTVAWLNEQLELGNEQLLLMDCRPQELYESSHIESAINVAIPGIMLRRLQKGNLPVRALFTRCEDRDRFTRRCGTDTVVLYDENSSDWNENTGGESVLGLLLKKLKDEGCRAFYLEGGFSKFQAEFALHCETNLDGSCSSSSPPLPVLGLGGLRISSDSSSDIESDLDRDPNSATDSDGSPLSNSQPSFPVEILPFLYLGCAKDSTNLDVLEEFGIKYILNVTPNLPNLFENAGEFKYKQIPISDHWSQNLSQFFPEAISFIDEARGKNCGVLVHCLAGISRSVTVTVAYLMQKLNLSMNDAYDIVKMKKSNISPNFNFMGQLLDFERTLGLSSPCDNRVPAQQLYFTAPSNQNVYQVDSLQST

[15] = molecular target: Dual specificity protein phosphatase 3 (Homo sapiens, UniProt P51452); test: SAR VHR1 Fluorescent Assay for In Vitro dose response studies Set 2. [Related pubchem assays (depositor defined):AID1654, AID1661, AID1878]; type: functional
Chain of Dual specificity protein phosphatase 3 (P51452 whole entry): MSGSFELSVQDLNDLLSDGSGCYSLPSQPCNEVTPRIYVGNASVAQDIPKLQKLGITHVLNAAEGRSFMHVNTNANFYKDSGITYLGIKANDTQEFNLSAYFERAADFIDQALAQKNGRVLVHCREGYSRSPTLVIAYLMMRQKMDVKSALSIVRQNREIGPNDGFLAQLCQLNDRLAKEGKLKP

[16] = HEK-293T viability loss, compound-treated – cell-based, uHTS hits, cytotoxicity control for B/T-cell NF-kB inhibitor project, dose response (AID 489019); type: functional;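 note: IC50 reflects cytotoxicity as loss of cell viability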
[17] = test system: Jurkat; test: blockers of NF-kB activation in T cells – Jurkat, luciferase reporter, luminescence, B- and T-cell, dose response (AID 489004); type: functional, cell-based; details: Homo sapiens;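 note: NF-kB luciferase reporter Jurkat cells stimulated with PMA plus ionomycin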
[18] = molecular target: Benomyl/methotrexate resistance protein (Candida albicans, UniProt P28873); test: Candida albicans Mdr1 pump blockade titration – singleplex, Cherry Pick2 set, dose response (AID 623992); type: functional; details: read-out: EC50_MICROM
Chain of Benomyl/methotrexate resistance protein (P28873 whole entry): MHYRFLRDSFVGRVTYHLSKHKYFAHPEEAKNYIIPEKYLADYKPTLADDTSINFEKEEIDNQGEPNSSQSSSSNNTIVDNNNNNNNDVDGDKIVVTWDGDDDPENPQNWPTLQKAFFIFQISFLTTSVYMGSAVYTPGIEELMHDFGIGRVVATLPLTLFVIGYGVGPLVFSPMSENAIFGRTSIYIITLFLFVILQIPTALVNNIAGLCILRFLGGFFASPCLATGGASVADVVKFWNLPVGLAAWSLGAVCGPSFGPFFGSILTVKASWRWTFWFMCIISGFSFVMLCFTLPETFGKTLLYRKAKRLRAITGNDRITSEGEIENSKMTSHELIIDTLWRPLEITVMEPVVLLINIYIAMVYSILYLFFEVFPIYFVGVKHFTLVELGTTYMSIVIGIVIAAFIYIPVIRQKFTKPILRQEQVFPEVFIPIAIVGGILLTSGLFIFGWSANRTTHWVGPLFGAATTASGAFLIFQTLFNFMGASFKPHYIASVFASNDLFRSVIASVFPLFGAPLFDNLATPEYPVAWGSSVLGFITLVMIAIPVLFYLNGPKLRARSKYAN

[19] = molecular target: Multidrug resistance protein CDR1 (Candida albicans, UniProt P43071); test: inhibition of Nile Red efflux via Candida CDR1 – S. cerevisiae AD1-8u, singleplex, Cherry Pick1 hits, dose response (AID 588606); type: functional
[20] = molecular target: Glycogen synthase kinase-3 beta (Homo sapiens, UniProt P49841); test: Inhibition of Human GSK-3 beta Activity Measured in Biochemical System Using Microfluidics - 2063-05_Inhibitor_Dose_DryPowder_Activity. [Related pubchem assays (depositor defined):AID2709]
[21] = molecular target: Glycogen synthase kinase-3 alpha (Homo sapiens, UniProt P49840); test: Inhibition of Human GSK-3 alpha Activity Measured in Biochemical System Using Microfluidics - 2063-06_Inhibitor_Dose_DryPowder_Activity. [Related pubchem assays (depositor defined):AID2709]
[22] = molecular target: T3, Corticotropin-releasing factor receptor 2/Corticotropin-releasing factor-binding protein (Homo sapiens, UniProt P24387+Q13324); test: activators of CRF receptor 2 with binding protein – uHTS hits, confirmation (AID 602473); type: functional; details: read-out: EC50_Mean
T3 sequence (Q13324 whole entry): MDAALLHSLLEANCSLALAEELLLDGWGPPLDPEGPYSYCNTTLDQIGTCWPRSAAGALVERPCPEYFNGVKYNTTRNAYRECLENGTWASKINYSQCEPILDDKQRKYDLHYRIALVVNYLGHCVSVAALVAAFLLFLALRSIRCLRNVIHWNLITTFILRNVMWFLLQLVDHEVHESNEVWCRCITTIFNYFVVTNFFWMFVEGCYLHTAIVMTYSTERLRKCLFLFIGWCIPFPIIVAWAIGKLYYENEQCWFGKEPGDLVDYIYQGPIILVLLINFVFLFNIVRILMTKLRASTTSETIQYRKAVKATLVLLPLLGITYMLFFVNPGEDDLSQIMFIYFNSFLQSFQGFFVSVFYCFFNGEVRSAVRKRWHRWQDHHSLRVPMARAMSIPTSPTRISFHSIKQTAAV
T3 sequence (P24387 whole entry): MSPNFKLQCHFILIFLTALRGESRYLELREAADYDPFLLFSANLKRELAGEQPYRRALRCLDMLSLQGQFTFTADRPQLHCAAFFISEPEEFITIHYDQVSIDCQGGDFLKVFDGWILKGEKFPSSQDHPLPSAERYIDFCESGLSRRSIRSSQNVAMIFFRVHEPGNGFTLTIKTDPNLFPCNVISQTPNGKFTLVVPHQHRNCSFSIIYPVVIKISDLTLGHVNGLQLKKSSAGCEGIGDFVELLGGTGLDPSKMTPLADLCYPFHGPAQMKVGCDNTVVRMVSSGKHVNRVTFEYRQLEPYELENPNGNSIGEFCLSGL

[23] = molecular target: Keap1/Nrf2 (Homo sapiens, UniProt Q14145); test: disruptors of Keap1 binding to Nrf2 peptide – biochemical, fluorescence polarization, cherry-picked samples, dose response (AID 588683)
[24] = test system: HEK293; test: cells; details: Homo sapiens
[25] = test system: HEK293; test: cells; type: functional, cell-based; details: Homo sapiens
[26] = test system: HEK293; test: inhibition of NOD1-driven NF-kB reporter – cell-based, luminescence, uHTS, primary screen (AID 1578); type: functional; details: Homo sapiens
[27] = molecular target: Tumor necrosis factor (Homo sapiens, UniProt P01375); test: analog potency on TNFa NF-kB signaling – cell-based, revised, SAR follow-up (AID 2337); type: functional
Chain of Tumor necrosis factor (P01375 whole entry, the tested form may be a part): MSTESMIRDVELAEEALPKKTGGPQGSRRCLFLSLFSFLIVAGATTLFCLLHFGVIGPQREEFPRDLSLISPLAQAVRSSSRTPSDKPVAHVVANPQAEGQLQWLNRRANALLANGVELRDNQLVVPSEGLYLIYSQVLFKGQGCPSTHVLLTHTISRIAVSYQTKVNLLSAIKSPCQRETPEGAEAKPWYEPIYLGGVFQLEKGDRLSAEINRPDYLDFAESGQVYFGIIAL

[28] = molecular target: Nucleotide-binding oligomerization domain-containing protein 1 (Homo sapiens, UniProt Q9Y239); test: blockers of NOD1 pathway activity – revised, SAR follow-up (AID 2333); type: functional
[29] = test system: HEK293; test: cells; type: functional, cell-based; details: Homo sapiens; remark: listed apart in the source
[30] = test system: HEK293; test: NOD2 signaling inhibitors in MDP-stimulated cells, cell-based, uHTS, luminescence (AID 2001); type: functional; details: Homo sapiens
[31] = molecular target: Dual specificity protein kinase CLK1 (Homo sapiens, UniProt P49759); test: inhibition of human CLK1 activity – biochemical, cherry-picked samples, selectivity assay for Dyrk1A inhibitor project, dose response (AID 588811)
Chain of Dual specificity protein kinase CLK1 (P49759 whole entry): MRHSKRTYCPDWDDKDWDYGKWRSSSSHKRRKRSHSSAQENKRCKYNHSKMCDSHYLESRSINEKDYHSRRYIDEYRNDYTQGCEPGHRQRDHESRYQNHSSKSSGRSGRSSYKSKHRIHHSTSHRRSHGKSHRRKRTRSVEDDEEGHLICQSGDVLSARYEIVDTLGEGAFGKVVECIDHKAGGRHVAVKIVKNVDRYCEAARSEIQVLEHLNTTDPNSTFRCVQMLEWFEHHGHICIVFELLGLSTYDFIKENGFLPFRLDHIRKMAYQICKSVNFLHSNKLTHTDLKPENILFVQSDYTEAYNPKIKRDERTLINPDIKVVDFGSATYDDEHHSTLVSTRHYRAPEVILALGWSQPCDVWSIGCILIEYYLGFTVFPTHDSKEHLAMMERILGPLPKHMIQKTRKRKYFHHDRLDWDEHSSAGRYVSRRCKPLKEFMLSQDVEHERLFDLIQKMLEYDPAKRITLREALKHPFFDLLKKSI

[32] = test system: INS1; test: INS-1E survival protection against cytokine death – cell-based, luminescence, retest, dose response (AID 449756); type: functional; details: Rattus norvegicus;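 note: cell death triggered by IL-1 beta plus TNF-alpha plus IFN-gamma mixture; protective hits raise ATP signal compared with cytokine alone wells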
[33] = luciferase reporter signal suppression in cells – H4 neuroglioma cells, luminescence, dose response (AID 1990); type: functional, cell-based
[34] = alpha-synuclein stem-loop luciferase translation blockers – H4 neuroglioma cells, luminescence, confirmation (AID 1988); type: functional, cell-based
[35] = test system: Jurkat; test: SAR Analysis of small molecule inhibitors of T-cell specific antigen receptor-induced NF-kB activation in a Jurkat cell line using a luminescence assay - Set 2. [Related pubchem assays (depositor defined):AID435003, AID435012, AID465]; type: functional, cell-based; details: Homo sapiens
[36] = test system: Vero; test: cells; type: functional; details: Chlorocebus sabaeus
[37] = test system: HEK293; test: SAR Analysis of small molecule inhibitors of T-cell specific antigen receptor-induced NF-kB activation in a HEK-293T cell line using a luminescence assay - Set 2. [Related pubchem assays (depositor defined):AID435003, AID435012, AID489026]; type: functional, cell-based; details: Homo sapiens
[38] = Luminescence Cell-Based Dose Response HTS to Identify Inhibitors of 5'UTR Stem-Loop Driven Prion Protein mRNA Translation in H4 Neuroglioblastoma Cells. [Related pubchem assays: 1827 (Project Summary), 1813 (Primary HTS)]; type: functional
[39] = test system: HEK293; test: HEK293T cell viability loss, resazurin readout – resazurin fluorescence, cytotoxicity control for NF-kB activator project, SAR follow-up (AID 493251); type: functional, cell-based; details: Homo sapiens

SMILES: O=C(O)C(c1ccccc1)N1C(=O)c2ccccc2C1=O (centres undefined)
- IC50 [1]: > 80 µM (inactive)
- IC50 [2]: > 80 µM (inactive)

SMILES: CCCSc1nnc(NC(=O)CSc2sc3c(O)cc(O)nc3c2C#N)s1
- IC50 [3]: 50.7 µM (inactive)
- AC50 [4]: > 30 µM (inactive)
- AC50 [5]: 106 µM (active)
- IC50 [6]: 3.46 µM (active)
- IC50 [7]: > 9.99 µM (inactive)

SMILES: Cc1cc(N2CCN(C(c3ccccc3)c3ccccc3)CC2)n2ncnc2n1
- AC50 [8]: 159 µM (active)
- AC50 [9]: 7.39 µM (active)

SMILES: O=[N+]([O-])c1cc(Cl)c2cccnc2c1O
- EC50 [10]: 0.084 µM (active)
- EC50 [11]: 11.1 µM (active)
- EC50 [12]: > 180 µM (inactive)
- EC50 [13]: 3.67 µM (active)

SMILES: COc1ccc(C(=O)NC2CCSc3ccccc32)cc1S(N)(=O)=O (centres undefined)
- IC50 [14]: > 100 µM (inactive)
- IC50 [15]: > 100 µM (inactive)

SMILES: Cc1cc(Cl)c(S(=O)(=O)N2CCCCCC2)cc1OCC(=O)NC1CCCCC1
- IC50 [16]: > 80 µM (inactive)
- IC50 [17]: > 80 µM (inactive)

SMILES: CCO[C@@H]1OC(C(=O)Nc2ccccc2)=C[C@H](c2ccc(Br)cc2)[C@H]1CCCO
- EC50 [18]: 25.2 µM (active)
- EC50 [19]: 11.7 µM (active)

SMILES: Nc1nc(Nc2cccc(F)c2)nc(NCCO)c1[N+](=O)[O-]
- AC50 [20]: 0.228 µM (active)
- AC50 [21]: 0.953 µM (active)

SMILES: CCN(CC)S(=O)(=O)c1ccc(C(=O)OCCN2C(=O)c3cccc4c(N5CCOCC5)ccc(c34)C2=O)cc1
- EC50 [22]: 6.47 µM (active)
- AC50 [23]: 13.9 µM (active)

SMILES: NC(=O)c1ccc(N2CCN(S(=O)(=O)c3ccccc3)CC2)c([N+](=O)[O-])c1
- IC50 [24]: > 20 µM (inactive)
- IC50 [25]: 16 µM (active)
- EC50 [26]: 4.72 µM (active)
- IC50 [27]: > 20 µM (inactive)
- IC50 [28]: 5.86 µM (active)
- IC50 [29]: > 20 µM (inactive)
- IC50 [30]: > 20 µM (inactive)

SMILES: CCCNc1ncnc2ccc(-c3ccc4c(c3)OCO4)cc12
- AC50 [31]: 0.00314 µM (active)

SMILES: CCN1CCN(c2c(Cl)cccc2NC(=O)c2ccc([N+](=O)[O-])o2)CC1
- AC50 [32]: 3.68 µM (active)
- EC50 [33]: 10.6 µM (active)
- EC50 [34]: 11.1 µM (active)
- IC50 [35]: 10.6 µM (active)
- CC50 [36]: 23.4 µM (active)
- IC50 [37]: 17.9 µM (active)
- EC50 [38]: > 120 µM (not active)
- IC50 [39]: 18.7 µM (active)
